Some results are limits rather than exact numbers.

This series deals with rats subjected to adrenalectomy (granuloma around implanted cotton wads). The series can be described thus: granulom test (cotton-pellet test) on rats subjected to adrenalectomy: granuloma growth, thymus weight, body weight increase. The series is classed as in vivo, rat (Sprague-Dawley). The following applies: for Dose required to obtain 50% inhibition of Granuloma growth: Table 3, adrenalectomized young male Sprague-Dawley rats, topical in implanted cotton wads, day 8; for Dose required to obtain 25% inhibition of Body weight Increase / Dose required to obtain 50% inhibition of Thymus weight: 11520 min. The text has this: In the following this active stereoisomeric component will always be designated B. As regards the steroids referred to in connection with the present invention the stereoisomeric mixture as well as the individual stereoisomeric components A and B have been investigated with regard to antiinflammatory activity in granulom test on rats subjected to adrenalectomy. The experimental procedure used corresponds largely to that described by G. Engelhardt: Arzneimittel-Forschung, 13, p. 588, 1963. According to this procedure the test substances are applied topically in the implanted cottom wads. It is thereby possible to study the local antiinflammatory effect in granulomas and also systemic effects in the form of retrogression of thymus and inhibition of bodyweight growth.
Young male rats of the Sprague-Dawley strain weighing about 110-130 g were subjected to adrenalectomy under ether narcosis. Two sterilized cottom wads of each about 6 mg were implanted simultaneously subcutaneously on the lateral side of the spinal. After awakening the animals were stored 5 per cage and were supplied with normal food and 1% sodium chloride solution as drinking water. On the eighth test day the animals were sacrificed by ether narcosis. The granuloma formed around the cotton wads were carefully recovered and thymus and body weights were measured. The two granuloma from each animal were dried over night at 80° C and weighed. After subtraction of the initial weight of the cotton wads the weight increase was used as a measure of the granulom growth.
The test substances were used dissolved in ethyl acetate. Under aseptic conditions 0.05 ml of said solutions were injected into each of the cotton wads, whereafter the solvent was allowed to evaporate in the desiccator. Normally 3 concentrations of each test substance with the standard doses 3.3, 30 and 270 γ/animal were investigated. Each test group normally comprised 10 rats. The cotton wads of the control group were injected with only ethyl acetate, but were in other respects treated in the same way. When considering the effects of the test substances the average values of granulom growth, thymus weight and body weight increase day 0-8 were measured in each group in absolute figures and in % of the corresponding figure of the control group. Dose-response curves were drafted and used for estimating the doses giving 50 % reduction of granulom growth and of thymus weight and 25 % decrease of body weight increase.
The following Table 4 discloses the results of the cotton-pellet test hereinbefore described, giving in addition figures for the therapeutic ratios, that is, the ratios of the ED50 for thymus weight inhibition divided by the ED50 for granuloma formation inhibition, and the ED25 for body weight increase inhibition over the ED50 for granuloma formation inhibition. As will be recognized, the higher the number for the therapeutic ratio, the more favorable the therapeutic ratio. […] As will be noted for the table, the therapeutic ratio for thymus over granuloma for the Component A esters is 4.2, 7.1, 4.5, 2.6, 2.2, 1.7, 2.5 and 1.7 times as good as it is for the corresponding Component B ester isomer, whereas the therapeutic ratio for the Component A ester isomer as far as body weight is granuloma 2.7, 3.3, 9.8, 6.4, 2.3, 2.8, 3.3 and 2.8 times as favorable as for the corresponding Component B ester isomer.

Where [1] appears, read: Table 4, ED25 body weight increase inhibition over ED50 granuloma formation inhibition.
The mark [2] stands for this setting: Table 4, ED50 thymus weight inhibition divided by ED50 granuloma formation inhibition.

In the case of `CCCC1O[C@@H]2C[C@H]3[C@@H]4CCC5=CC(=O)C=C[C@]5(C)[C@H]4[C@@H](O)C[C@]3(C)[C@]2(C(=O)CO)O1` (single isomer, unassigned) [12 B], the “Dose required to obtain 50% inhibition of Granuloma growth” value is 40 γ/animal. In addition, where the note is “rat, in vivo”, the “Dose required to obtain 25% inhibition of Body weight Increase” value is 50 γ/animal and the “Dose required to obtain 50% inhibition of Thymus weight” value is 70 γ/animal.

On to `CCCC1O[C@@H]2C[C@H]3[C@@H]4CCC5=CC(=O)C=C[C@]5(C)[C@H]4[C@@H](O)C[C@]3(C)[C@]2(C(=O)COC(=O)c2cc3ccccc3o2)O1` (single isomer, unassigned) [28 A], for which, for the setting “rat, in vivo”, the ED25 body weight increase inhibition was found to be 100 µg/animal, the ED50 thymus weight inhibition came to 100 µg/animal, the “Therapeutic ratio body weight/granuloma” value was above 33.3 and the Therapeutic ratio thymus/granuloma is reported as above 33.3.

Consider `CCCCCC1O[C@@H]2C[C@H]3[C@@H]4CCC5=CC(=O)C=C[C@]5(C)[C@@]4(F)[C@@H](O)C[C@]3(C)[C@]2(C(=O)CO)O1` (single isomer, unassigned) [5 B], for which the “Dose required to obtain 50% inhibition of Granuloma growth” value was 10 γ/animal. In addition, where the note is “rat, in vivo”, the “Dose required to obtain 25% inhibition of Body weight Increase” value is given as > 270 γ/animal and the “Dose required to obtain 50% inhibition of Thymus weight” value is reported as 90 γ/animal.

As for `CCCCCC1O[C@@H]2C[C@H]3[C@@H]4CCC5=CC(=O)C=C[C@]5(C)[C@H]4[C@@H](O)C[C@]3(C)[C@]2(C(=O)CO)O1` (single isomer, unassigned) [13 A], the “Dose required to obtain 50% inhibition of Granuloma growth” value is 8 γ/animal. Besides, where the note is “rat, in vivo”, the “Dose required to obtain 25% inhibition of Body weight Increase” value is 100 γ/animal and the “Dose required to obtain 50% inhibition of Thymus weight” value was > 270 γ/animal.

Regarding `CCCCCC1O[C@@H]2C[C@H]3[C@@H]4CCC5=CC(=O)C=C[C@]5(C)[C@H]4[C@@H](O)C[C@]3(C)[C@]2(C(=O)CO)O1` (stereo partly drawn) [13 A+B], the “Dose required to obtain 50% inhibition of Granuloma growth” value is reported as 10 γ/animal. In addition, under “rat, in vivo”, the “Dose required to obtain 25% inhibition of Body weight Increase” value is 90 γ/animal and the “Dose required to obtain 50% inhibition of Thymus weight” value is 175 γ/animal.

For the compound `CCCC1OC2CC3C4CCC5=CC(=O)C=CC5(C)C4(F)C(O)CC3(C)C2(C(=O)CO)O1` (mixture of isomers) [3 A+B], the “Dose required to obtain 50% inhibition of Granuloma growth” value was 10 γ/animal. For the same compound, under “rat, in vivo”, the “Dose required to obtain 25% inhibition of Body weight Increase” value is listed as > 30 γ/animal and the “Dose required to obtain 50% inhibition of Thymus weight” value is given as > 30 γ/animal.

For the compound `CC1(C)O[C@@H]2C[C@H]3[C@@H]4CCC5=CC(=O)C=C[C@]5(C)[C@@]4(F)[C@@H](O)C[C@]3(C)[C@]2(C(=O)CO)O1` [Triamcinolone acetonide, reference compound], for the setting “rat, in vivo”, the “decrease of body weight growth at the dose giving 50% inhibition of granulom growth” value was “heavy decrease”, the “decrease of thymus weight at the dose giving 50% inhibition of granulom growth” value is reported as “heavy decrease”, the “Dose required to obtain 25% inhibition of Body weight Increase” value is listed as 100 γ/animal and the “Dose required to obtain 50% inhibition of Thymus weight” value is recorded as 70 γ/animal.

With `CC1O[C@@H]2C[C@H]3[C@@H]4C[C@H](F)C5=CC(=O)C=C[C@]5(C)[C@@]4(F)[C@@H](O)C[C@]3(C)[C@]2(C(=O)COC(=O)c2cc3ccccc3o2)O1` (stereo partly drawn) [23 A], the “Therapeutic ratio body weight/granuloma” value under setting [1] was above 3.3. Under setting [2], the Therapeutic ratio thymus/granuloma was above 3.3. Moreover, under “rat, in vivo”, the ED25 body weight increase inhibition came out at 10 µg/animal and the ED50 thymus weight inhibition came out at 10 µg/animal.

For the compound `CC1(C)O[C@@H]2C[C@H]3[C@@H]4CCC5=CC(=O)C=C[C@]5(C)[C@H]4[C@@H](O)C[C@]3(C)[C@]2(C(=O)CO)O1` [Prednacinolone acetonide, reference compound], the “Dose required to obtain 50% inhibition of Granuloma growth” value is reported as 270 γ/animal. Moreover, where the note is “rat, in vivo”, the “Dose required to obtain 25% inhibition of Body weight Increase” value is reported as > 270 γ/animal and the “Dose required to obtain 50% inhibition of Thymus weight” value is on record as 105 γ/animal.

On to `CCCC1O[C@@H]2C[C@H]3[C@@H]4C[C@H](F)C5=CC(=O)C=C[C@]5(C)[C@@]4(F)[C@@H](O)C[C@]3(C)[C@]2(C(=O)COC(=O)c2cc3ccccc3o2)O1` (single isomer, unassigned) [25 A], for which the “Dose required to obtain 50% inhibition of Granuloma growth” value is < 3 γ/animal. Where the note is “rat, in vivo”, the ED25 body weight increase inhibition was 20 µg/animal, the ED50 thymus weight inhibition was determined as 15 µg/animal, the “Therapeutic ratio body weight/granuloma” value is reported as above 6.7 and the Therapeutic ratio thymus/granuloma was above 5.0. Moreover, where the note is “rat, in vivo”, the “Dose required to obtain 25% inhibition of Body weight Increase” value was 20 γ/animal and the “Dose required to obtain 50% inhibition of Thymus weight” value is listed as 15 γ/animal.

As to `CCCCC1O[C@@H]2C[C@H]3[C@@H]4CCC5=CC(=O)C=C[C@]5(C)[C@@]4(F)[C@@H](O)C[C@]3(C)[C@]2(C(=O)CO)O1` (single isomer, unassigned) [4 A], the “Dose required to obtain 50% inhibition of Granuloma growth” value is given as < 3 γ/animal. Where the note is “rat, in vivo”, the “Dose required to obtain 25% inhibition of Body weight Increase” value is recorded as 170 γ/animal and the “Dose required to obtain 50% inhibition of Thymus weight” value is 100 γ/animal.

On to `CCC1O[C@@H]2C[C@H]3[C@@H]4CCC5=CC(=O)C=C[C@]5(C)[C@@]4(F)[C@@H](O)C[C@]3(C)[C@]2(C(=O)CO)O1` (single isomer, unassigned) [2 B], for which the “Dose required to obtain 50% inhibition of Granuloma growth” value was 10 γ/animal. Further, for the setting “rat, in vivo”, the “Dose required to obtain 25% inhibition of Body weight Increase” value is reported as 100 γ/animal and the “Dose required to obtain 50% inhibition of Thymus weight” value is 60 γ/animal.

As to `CC1O[C@@H]2C[C@H]3[C@@H]4CCC5=CC(=O)C=C[C@]5(C)[C@@]4(F)[C@@H](O)C[C@]3(C)[C@]2(C(=O)COC(=O)c2cccnc2)O1` (single isomer, unassigned) [17 B], the “Dose required to obtain 50% inhibition of Granuloma growth” value is listed as 3 γ/animal. For the same compound, under “rat, in vivo”, the “Dose required to obtain 25% inhibition of Body weight Increase” value was 20 γ/animal and the “Dose required to obtain 50% inhibition of Thymus weight” value was 13 γ/animal.

As to `CC1O[C@@H]2C[C@H]3[C@@H]4CCC5=CC(=O)C=C[C@]5(C)[C@@]4(F)[C@@H](O)C[C@]3(C)[C@]2(C(=O)CO)O1` (single isomer, unassigned) [1 A], the “Dose required to obtain 50% inhibition of Granuloma growth” value was 270 γ/animal. For the setting “rat, in vivo”, the “Dose required to obtain 25% inhibition of Body weight Increase” value was 60 γ/animal and the “Dose required to obtain 50% inhibition of Thymus weight” value was 115 γ/animal.

For `CC1O[C@@H]2C[C@H]3[C@@H]4C[C@H](F)C5=CC(=O)C=C[C@]5(C)[C@@]4(F)[C@@H](O)C[C@]3(C)[C@]2(C(=O)COC(=O)c2cc3ccccc3o2)O1` (stereo partly drawn) [23 B], under setting [1], the “Therapeutic ratio body weight/granuloma” value is above 1.0. The Therapeutic ratio thymus/granuloma under setting [2] is on record as above 1.3. Under “rat, in vivo”, the ED25 body weight increase inhibition was 3 µg/animal and the ED50 thymus weight inhibition worked out at 4 µg/animal.

`CCCC1O[C@@H]2C[C@H]3[C@@H]4CCC5=CC(=O)C=C[C@]5(C)[C@H]4[C@@H](O)C[C@]3(C)[C@]2(C(=O)CO)O1` (stereo partly drawn) [12 A+B]: the “Dose required to obtain 50% inhibition of Granuloma growth” value was 100 γ/animal. Also, for the setting “rat, in vivo”, the “Dose required to obtain 25% inhibition of Body weight Increase” value was 80 γ/animal and the “Dose required to obtain 50% inhibition of Thymus weight” value was 80 γ/animal.

Regarding `CCCCC(=O)OCC(=O)C12OC(CCC)OC1CC1C3CCC4=CC(=O)C=CC4(C)C3(F)C(O)CC12C` (mixture of isomers) [22 A+B], the “Dose required to obtain 50% inhibition of Granuloma growth” value is reported as 10 γ/animal. Also, where the note is “rat, in vivo”, the “Dose required to obtain 25% inhibition of Body weight Increase” value is 30 γ/animal and the “Dose required to obtain 50% inhibition of Thymus weight” value is 50 γ/animal.

In the case of `CC1O[C@@H]2C[C@H]3[C@@H]4CCC5=CC(=O)C=C[C@]5(C)[C@@]4(F)[C@@H](O)C[C@]3(C)[C@]2(C(=O)COC(=O)c2cc3ccccc3o2)O1` (stereo partly drawn) [16 B], the “Dose required to obtain 50% inhibition of Granuloma growth” value was 3 γ/animal. Besides, the “Therapeutic ratio body weight/granuloma” value under setting [1] is recorded as 3.3. Moreover, the Therapeutic ratio thymus/granuloma under setting [2] is recorded as 3.3. Besides, for the setting “rat, in vivo”, the ED25 body weight increase inhibition was 10 µg/animal, the ED50 thymus weight inhibition is 10 µg/animal, the “Dose required to obtain 25% inhibition of Body weight Increase” value was 10 γ/animal and the “Dose required to obtain 50% inhibition of Thymus weight” value is 10 γ/animal.

For the compound `CCCC1OC2CC3C4CCC5=CC(=O)C=CC5(C)C4(F)C(O)CC3(C)C2(C(=O)COC(=O)c2cccnc2)O1` (mixture of isomers) [21 A+B], the “Dose required to obtain 50% inhibition of Granuloma growth” value is given as 7 γ/animal. For the same compound, where the note is “rat, in vivo”, the “Dose required to obtain 25% inhibition of Body weight Increase” value is given as 10 γ/animal and the “Dose required to obtain 50% inhibition of Thymus weight” value is reported as 35 γ/animal.
